Results: patent EP3178809A1, “HYBRID MOLECULE WITH STRUCTURAL AND ACTIVITY ELEMENTS OF RESVERATROL AND DIALLYL SULFIDE” (Albert-Ludwigs-Universität Freiburg, priority 2015, dated 2017)

Assays:
[1] = test system: humane Magenkarzinomzellen MKN-45; test: Apoptosis induction in tumour cells (morphological criteria, duplicate assays); format: cell-based, human; settings: for Konzentration für optimale Wirkung: induction of apoptosis in tumour cells, single agents, combinations with Resveratrol, or hybrid
Experimental: Nach 3 Stunden bei 37 ° C, 5 % CO2 wurden die Prozentsätze apoptotischer Zellen bestimmt. […] Nach 3 Stunden bei 37 ° C, 5 % CO2 wurden die Prozentsätze apoptotischer Zellen bestimmt.
Die Daten basieren allesamt auf der quantitativen Bestimmung der Apoptose mittels der klassischen morphologischen Kriterien Kernkondensation, Kernfragmentation und Membrane Blebbing nach definierten Inkubationszeiten bei 37°C.
Die Ansätze erfolgten bei einer Zelldichte von 125 000 Zellen/ml in 96-Loch-Platten mit einem Reaktionsvolumen von 100 µl. Alle Ansätze wurden als Doppelansätze geführt und pro Messpunkt wurden mindestens 200 Zellen morphologisch bewertet. Eine detaillierte Aufstellung der verwendeten Medien, Inhibitoren, Zellen ist in den Arbeiten Scheit and Bauer, 2015; Bauer und Zarkovic, 2014; Bauer et al., 2014; Bauer, 2015 beschrieben.
Um zu klären, ob das Hybridmolekül aus Struktur- und Wirkungselementen von Resveratrol und Diallyldisulfid in der Lage ist, Apoptose in Tumorzellen zu induzieren, und dabei zu prüfen, ob sich durch die Kombination der Einzelfunktionen in einem Molekül der Synergieeffekt bündeln ließ, wurden steigende Konzentrationen des Hybridmoleküls zu Magenkarzinomzellen der Linie MKN-45 gegeben. Die als Parallelansätze geführten Ansätze wurden sowohl ohne als auch in Anwesenheit von 2 mM des Singulettsauerstofffängers Histidin inkubiert, um zu prüfen, ob der durch das Hybridmolekül ausgelöste Effekt durch Singulettsauerstoff vermittelt wird. Zum Vergleich wurde das gleiche Experiment mit steigenden Konzentrationen DADS durchgeführt, ebenfalls mit und ohne Histidinzugabe. Nach 3,5 Stunden Inkubation wurde der Prozentsatz apoptotischer Zellen bestimmt.

[2] = test system: NO Dioxygenase; test: Test for inhibition of NO dioxygenase (enhanced effect of NO donor DEA NONOate on superoxide-producing cells); format: cell-based
From the text: Die Messung erfordert, dass durch geeignete Maßnahmen, wie bei Scheit und Bauer, 2015 beschrieben, die Tumorzellkatalase maximal inhibiert, die Hemmwirkung von H2O2 auf ·NO und Peroxynitrit durch Anwesenheit eines Katalasemimetikums verhindert und de novo Synthese von ·NO durch die Anwesenheit des NOS Inhibitors L-NAME verhindert wird.
Die Messung der extrazellulären Superoxidanionenkonzentration von Tumorzellen sowie die Bestrahlungstechnik mit Niedrigdosis-Gammastrahlung wird in der Arbeit Temme and Bauer, 2013 beschrieben. Die Hemmung der NOD wird bei Scheit and Bauer, 2015, beschrieben. Viele Versuchsergebnisse wurden in den Figuren dargestellt.

Compound | Prozent des Maximalwertes der Apoptoseinduktion ([1]; 1 nM, MKN-45, 3,5 Stunden) | Konzentration, bei der der maximale Apoptose-auslösende Effekt erzielt wird ([1]; MKN-45, 3,5 Stunden Inkubation) [nM] | Konzentration für optimale Wirkung [1] [nM] | Steigerung der Wirkung durch Zugabe von Einzelkomponenten ([1]; plus 0,9 µM Resveratrol, 0.3 µM DADS or 2,5 µM NOR-NOHA, MKN-45, 3,5 Stunden) | wirksamer als Diallyldisulfid ([1]; shift of concentration-effect curves, apoptosis in MKN-45) | Hemmung der NO Dioxygenase [2] | wirksamer in Bezug auf Induktion der Apoptose in Tumorzellen als Diallyldisulfid ([1]; from Tabelle 2)
C=CCSSCCCOc1cc(/C=C/c2ccc(O)cc2)cc(OCCCSSCC=C)c1 [Hybridmolekül] | ca. 40 Prozent | 10 | 3 to 30 | nicht steigern | ~1000 -fach | – | –
O=c1c(O)c(-c2ccc(O)c(O)c2)oc2cc(O)cc(O)c12 [Quercitin] | – | – | – | – | – | Hemmung dieses Enzyms | –
CC(=O)O[C@H]1C(=O)[C@@]2(C)[C@H]([C@H](OC(=O)c3ccccc3)[C@]3(O)C[C@H](OC(=O)[C@H](O)[C@@H](NC(=O)c4ccccc4)c4ccccc4)C(C)=C1C3(C)C)[C@]1(OC(C)=O)CO[C@@H]1C[C@@H]2O [Taxol] | – | – | 900 to 3800 | – | – | Hemmung dieses Enzyms | ≥ 10 -fach
Epothilon B | – | – | – | – | – | Hemmung dieses Enzyms | –
